Source: paper PMC10135569, “Does Enhanced Structural Maturity of hiPSC-Cardiomyocytes Better for the Detection of Drug-Induced Cardiotoxicity?” (Biomolecules, 2023)

Legend:
[1] = test system: hiPSC-CMs (iCell2 Cardiomyocytes) 2D monolayers; assay: Membrane potential (action potential) recordings with FluoVolt voltage-sensitive dye on the CellOPTIQ platform; format: cell-based, human; details: for activity at 3 µM / activity at 0.1 µM / activity at 0.3 µM / activity at 1 µM: Homo sapiens, Cardiomyocyte, 0.5 h, 30 min, delta over DMSO 0.1%
Procedure, shortened: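 iCell2 hiPSC-CM monolayers (50,000 cells/well on fibronectin or Matrix Plus, days 5–6) were loaded with FluoVolt (1:1000, 20 min, 37 °C) and imaged at 37 °C with 470 nm excitation and 510–560 nm emission sampled at 10 kHz. Spontaneous action potentials were recorded for 10 s at baseline and 30 min after drug, with one of four concentrations per well (n = 8).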

[2] = test system: hiPSC-CMs (iCell2 Cardiomyocytes) 2D monolayers; assay: Contractility measurements using video imaging (ContractilityTool / MUSCLEMOTION); format: cell-based, human; details: Homo sapiens, Cardiomyocyte, 0.5 h, 30 min, delta over DMSO 0.1%
Procedure, shortened: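 Monolayers on fibronectin or Matrix Plus coating, tested on days 5–6 in serum-free medium. Four concentrations, one per well, n = 8, with vehicle control.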

[3] = MM monolayer, read-out: APD30 (%DD)
[4] = MM monolayer, read-out: APD90 (%DD)
[5] = MM monolayer, read-out: CL (%DD)
[6] = MM monolayer, read-out: Trise (%DD)
[7] = read-out: APD30 (%DD), FM monolayer
[8] = read-out: APD90 (%DD), FM monolayer
[9] = read-out: CL (%DD), FM monolayer
[10] = read-out: Trise (%DD), FM monolayer
[11] = FM monolayer, read-out: CtAmp (%DD)
[12] = FM monolayer, read-out: CtD50 (%DD)
[13] = MM monolayer, read-out: CtAmp (%DD)
[14] = MM monolayer, read-out: CtD50 (%DD)

## O=C1CCCN1CC#CCN1CCCC1 [Oxotremorine]
[1]; FM monolayer, read-out: Trise (%DD)
  activity at 3 µM: 132 ± 11.2%
[1]; [3]
  activity at 0.1 µM: 104 ± 1.7%
  activity at 0.3 µM: 110 ± 3.4%
  activity at 1 µM: 110 ± 2.8%
  activity at 3 µM: 115 ± 3.8%
[1]; [4]
  activity at 0.1 µM: 104 ± 1%
  activity at 0.3 µM: 108 ± 1.1%
  activity at 1 µM: 114 ± 1.1%
  activity at 3 µM: 113 ± 1.2%
[1]; [5]
  activity at 0.1 µM: 111 ± 2.8%
  activity at 0.3 µM: 115 ± 3.3%
  activity at 1 µM: 120 ± 1.4%
  activity at 3 µM: 123 ± 1.1%
[1]; [6]
  activity at 0.1 µM: 124 ± 18.7%
  activity at 0.3 µM: 144 ± 26.3%
  activity at 1 µM: 117 ± 17%
  activity at 3 µM: 158 ± 32%
[1]; [7]
  activity at 0.1 µM: 106 ± 2.3%
  activity at 0.3 µM: 111 ± 3.3%
  activity at 1 µM: 110 ± 4.4%
  activity at 3 µM: 107 ± 3.4%
[1]; [8]
  activity at 0.1 µM: 103 ± 1.3%
  activity at 0.3 µM: 105 ± 2.8%
  activity at 1 µM: 111 ± 1.7%
  activity at 3 µM: 101 ± 2.8%
[1]; [9]
  activity at 0.1 µM: 117 ± 1.3%
  activity at 0.3 µM: 122 ± 1.8%
  activity at 1 µM: 121 ± 2.9%
  activity at 3 µM: 111 ± 3.6%
[1]; [10]
  activity at 0.1 µM: 155 ± 41.3%
  activity at 0.3 µM: 145 ± 24.3%
  activity at 1 µM: 117 ± 13.3%
[1]; both FM and MM, concentration not given
  effect on beating rate / spontaneous rate (in words): decrease
[1]; both groups (FM and MM)
  changes in the APD: < 10%
[2]; [11]
  activity at 0.1 µM: 140 ± 19.7%
  activity at 0.3 µM: 105 ± 16.5%
  activity at 1 µM: 117 ± 14.5%
  activity at 3 µM: 166 ± 17.6%
[2]; [12]
  activity at 0.1 µM: 108 ± 1.9%
  activity at 0.3 µM: 112 ± 2.5%
  activity at 1 µM: 116 ± 2.8%
  activity at 3 µM: 110 ± 1.6%
[2]; [13]
  activity at 0.1 µM: 106 ± 11.7%
  activity at 0.3 µM: 97 ± 12.9%
  activity at 1 µM: 105 ± 10.2%
  activity at 3 µM: 103 ± 7.4%
[2]; [14]
  activity at 0.1 µM: 116 ± 2.1%
  activity at 0.3 µM: 117 ± 1.1%
  activity at 1 µM: 118 ± 1.6%
  activity at 3 µM: 120 ± 2.3%
